Results reported in ChEMBL document CHEMBL5360614, “Quinoline Thiourea-Based Zinc Ionophores with Antibacterial Activity” (J Med Chem, 2023).
≈ marks a conversion by molar mass, not a printed value. Calls of active or inactive are those of the source. No cut-off for these calls is given here. Non-standard residues stand in square brackets, D forms with d. Residues, ends and D or L forms follow the SMILES beside them. ξ: configuration not given here. Orn = NCCC[C@H](N)C(=O)O; ξP = O=C(O)C1CCCN1

How the values were obtained:
Staphylococcus aureus [1] = assay: Antibacterial activity against Staphylococcus aureus MTCC-96 assessed as reduction in bacterial growth incubated for 14 to 16 hrs by microbroth dilution method; type: functional; conditions: time 14-16 hrs
Staphylococcus aureus [2] = assay: Antibacterial activity against gentamicin-and methicillin-resistant Staphylococcus aureus ATCC 33592 assessed as reduction in bacterial growth incubated for 14 to 16 hrs by microbroth dilution method; type: functional; conditions: time 14-16 hrs
Escherichia coli = assay: Antibacterial activity against Escherichia coli MTCC 1687 assessed as reduction in bacterial growth incubated for 14 to 16 hrs by microbroth dilution method; type: functional; conditions: time 14-16 hrs
Lipid bilayer [3] = assay: (§1) Induction of ionophore activity across EYPC:CHOL (8:2) large unilamellar vesicles assessed as transmembrane Zn2+ ion transport by measuring decrease in fluorescence intensity for HPTS dye at 10 uM preincubated for 3 mins followed by ZnCl2 addition and mesured after 7.5 mins by HPTS dye based fluorescence spectrophotometric analysis; conditions: filed as opener, time 10.5 min
Lipid bilayer [4] = assay: as §1, with “cation” for “Zn2+ ion”, “dye” for “dye at 10 uM”, “NaCl” for “ZnCl2”; conditions: time 10.5 min
Lipid bilayer [5] = assay: as §1, with “cation” for “Zn2+ ion”, “dye” for “dye at 10 uM”, “KCl” for “ZnCl2”; conditions: time 10.5 min
Lipid bilayer [6] = assay: as §1, with “cation” for “Zn2+ ion”, “dye” for “dye at 10 uM”, “LiCl” for “ZnCl2”; conditions: time 10.5 min
Lipid bilayer [7] = assay: as §1, with “cation” for “Zn2+ ion”, “dye” for “dye at 10 uM”, “RbCl” for “ZnCl2”; conditions: time 10.5 min
Lipid bilayer [8] = assay: as §1, with “cation” for “Zn2+ ion”, “dye” for “dye at 10 uM”, “MnCl2” for “ZnCl2”; conditions: time 10.5 min
Lipid bilayer [9] = assay: as §1, with “cation” for “Zn2+ ion”, “dye” for “dye at 10 uM”, “CaCl2” for “ZnCl2”; conditions: time 10.5 min
Lipid bilayer [10] = assay: as §1, with “cation” for “Zn2+ ion”, “dye” for “dye at 10 uM”, “CsCl” for “ZnCl2”; conditions: time 10.5 min
Lipid bilayer [11] = assay: as §1, with “cation” for “Zn2+ ion”, “dye” for “dye at 10 uM”, “MgCl2” for “ZnCl2”; conditions: time 10.5 min
Lipid bilayer [12] = assay: as §1, with “cation” for “Zn2+ ion”, “dye” for “dye at 10 uM”, “CuCl2” for “ZnCl2”; conditions: filed as opener; time 10.5 min
Lipid bilayer [13] = assay: as §1, with “anion” for “Zn2+ ion”, “dye” for “dye at 10 uM”, “ZnBr2” for “ZnCl2”; conditions: filed as opener; time 10.5 min
Lipid bilayer [14] = assay: as §1, with “anion” for “Zn2+ ion”, “dye” for “dye at 10 uM”, “ZnSO4” for “ZnCl2”; conditions: filed as opener; time 10.5 min
Lipid bilayer [15] = assay: as §1, with “anion” for “Zn2+ ion”, “dye” for “dye at 10 uM”, “Zn(NO3)2” for “ZnCl2”; conditions: filed as opener; time 10.5 min
Lipid bilayer [16] = assay: as §1, with “anion” for “Zn2+ ion”; conditions: filed as opener, time 10.5 min
Staphylococcus aureus [17] = assay: Antibacterial activity against Staphylococcus aureus MTCC-96 assessed as reduction in bacterial growth incubated for 14 to 16 hrs in presence of 400 uM ZnCl2 by microbroth dilution method; type: functional; conditions: time 14-16 hrs
Staphylococcus aureus [18] = assay: Antibacterial activity against Staphylococcus aureus MTCC-96 assessed as reduction in bacterial growth incubated for 14 to 16 hrs in presence of EGTA by microbroth dilution method; type: functional; conditions: time 14-16 hrs
Staphylococcus aureus [19] = assay: Antibacterial activity against Staphylococcus aureus MTCC-96 assessed as fold reduction in bacterial growth incubated for 14 to 16 hrs in presence of 400 uM ZnCl2 by microbroth dilution method; type: functional; conditions: time 14-16 hrs
Staphylococcus aureus [20] = assay: Antibacterial activity against Staphylococcus aureus MTCC-96 assessed as reduction in bacterial growth incubated for 14 to 16 hrs in presence of 100 to 400 uM ZnBr2 by microbroth dilution method; type: functional, organism-based; conditions: time 14-16 hrs
Staphylococcus aureus [21] = assay: Antibacterial activity against Staphylococcus aureus MTCC-96 assessed as reduction in bacterial growth incubated for 14 to 16 hrs in presence of 100 to 400 uM Zn(NO3)2 by microbroth dilution method; type: functional, organism-based; conditions: time 14-16 hrs
Staphylococcus aureus [22] = assay: Antibacterial activity against Staphylococcus aureus MTCC-96 assessed as reduction in bacterial growth incubated for 14 to 16 hrs in presence of 100 to 400 uM ZnSO4 by microbroth dilution method; type: functional, organism-based; conditions: time 14-16 hrs
Staphylococcus aureus [23] = assay: Antibacterial activity against Staphylococcus aureus MTCC-96 assessed as reduction in bacterial growth incubated for 14 to 16 hrs in presence of 100 to 400 uM CsCl by microbroth dilution method; type: functional, organism-based; conditions: time 14-16 hrs
Staphylococcus aureus [24] = assay: Antibacterial activity against Staphylococcus aureus MTCC-96 assessed as reduction in bacterial growth incubated for 14 to 16 hrs in presence of 100 to 400 uM CuCl2 by microbroth dilution method; type: functional, organism-based; conditions: time 14-16 hrs
Staphylococcus aureus [25] = assay: Antibacterial activity against Staphylococcus aureus MTCC-96 assessed as reduction in bacterial growth incubated for 14 to 16 hrs in presence of 100 to 400 uM CaCl2 by microbroth dilution method; type: functional, organism-based; conditions: time 14-16 hrs
Staphylococcus aureus [26] = assay: Antibacterial activity against Staphylococcus aureus MTCC-96 assessed as reduction in bacterial growth incubated for 14 to 16 hrs in presence of 100 to 400 uM MnCl2 by microbroth dilution method; type: functional, organism-based; conditions: time 14-16 hrs
Staphylococcus aureus [27] = assay: Antibacterial activity against Staphylococcus aureus MTCC-96 assessed as reduction in bacterial growth incubated for 14 to 16 hrs in presence of 100 to 400 uM MgCl2 by microbroth dilution method; type: functional, organism-based; conditions: time 14-16 hrs
Staphylococcus aureus [28] = assay: Bactericidal activity against Staphylococcus aureus MTCC-96 at 2 times MIC incubated for 2 hrs in presence of ZnCl2 by time kill assay; type: functional, organism-based
Staphylococcus aureus [29] = assay: Bactericidal activity against Staphylococcus aureus MTCC-96 at 2 times MIC incubated for 2 hrs by time kill assay; type: functional, organism-based
Staphylococcus aureus [30] = assay: Bactericidal activity against Staphylococcus aureus MTCC-96 assessed as reduction in bacterial colony formation at 2 times MIC incubated upto 8 hrs in presence of ZnCl2 by agar-plate method; type: functional, organism-based
Cell membrane = assay: Induction of cell membrane depolarization in Staphylococcus aureus MTCC-96 assessed as change in fluorescence intensity at 3.13 uM by DiSC3-5 dye based fluorescence method; type: subcellular
Staphylococcus aureus [31] = assay: Disruption of membrane integrity in Staphylococcus aureus MTCC-96 assessed as increase in fluorescence intensity at 4 to 8 uM by PI staining based fluorescence analysis; type: functional, organism-based; conditions: dose 4-8 µM
Staphylococcus aureus [32] = assay: Disruption of membrane integrity in Staphylococcus aureus MTCC-96 assessed as change in cocci shape in presence of Zn2+ ion by FE-SEM analysis; type: functional, organism-based
Staphylococcus aureus [33] = assay: Antibacterial activity against Staphylococcus aureus MTCC-96 assessed as resistance development by measuring fold increase in MIC and measured after 30 days by microbroth dilution method; type: functional; conditions: time 30 day
Staphylococcus aureus [34] = assay: Antibacterial activity against Staphylococcus aureus MTCC-96 assessed as resistance development by measuring fold increase in MIC and measured after 30 days in presence of ZnCl2 by microbroth dilution method; type: functional, organism-based; conditions: time 30.0 day
Erythrocyte = assay: Hemolytic activity in human Red blood cells assessed as hemolysis rate at 1.6 to 50 uM incubated for 1 to 24 hrs in presence of ZnCl2 by absorbance based analysis; type: toxicity, cell-based; conditions: dose lower 1.6 µM, time lower 1 hrs, dose upper 50 µM, time upper 24 hrs
MCF-10A = assay: Cytotoxicity against human MCF-10A cells assessed as reduction in cell viability at 1 to 100 uM incubated for 44 hrs by MTT assay; type: toxicity, cell-based; conditions: dose 1-100 µM
MCF7 = assay: Cytotoxicity against human MCF7 cells assessed as reduction in cell viability at 1 to 100 uM incubated for 44 hrs by MTT assay; type: toxicity, cell-based; conditions: mcf7, 44 h, dose 1-100 µM
MDA-MB-231 = assay: Cytotoxicity against human MDA-MB-231 cells assessed as reduction in cell viability at 1 to 100 uM incubated for 44 hrs by MTT assay; type: toxicity, cell-based; conditions: mda-mb-231, 44 h, dose 1-100 µM
A549 = assay: Cytotoxicity against human A549 cells assessed as reduction in cell viability at 1 to 100 uM incubated for 44 hrs by MTT assay; type: toxicity, cell-based; conditions: a549, 44 h, dose 1-100 µM
HCT-116 = assay: Cytotoxicity against human HCT-116 cells assessed as reduction in cell viability at 1 to 100 uM incubated for 44 hrs by MTT assay; type: toxicity, cell-based; conditions: hct-116, 44 h, dose 1-100 µM

## FC(F)(F)c1cc(NC(=S)Nc2cccc3ccc(-n4ccnc4)nc23)cc(C(F)(F)F)c1
Staphylococcus aureus [1]
  MIC: 12.5 µM (≈ 6.02 µg/mL)
Staphylococcus aureus [2]
  MIC: 12.5 µM (≈ 6.02 µg/mL)
Escherichia coli
  MIC: > 50 µM

## FC(F)(F)c1cc(NC(=S)Nc2cccc3cccnc23)cc(C(F)(F)F)c1
Lipid bilayer [3]
  Activity: Active
Lipid bilayer [4]
  Activity: inactive
Lipid bilayer [5]
  Activity: inactive
Lipid bilayer [6]
  Activity: inactive
Lipid bilayer [7]
  Activity: inactive
Lipid bilayer [8]
  Activity: inactive
Lipid bilayer [9]
  Activity: inactive
Lipid bilayer [10]
  Activity: inactive
Lipid bilayer [11]
  Activity: inactive
Lipid bilayer [12]
  Activity: Active
Lipid bilayer [13]
  Activity: Active
Lipid bilayer [14]
  Activity: Active
Lipid bilayer [15]
  Activity: Active
Lipid bilayer [16]
  Activity: Active
Staphylococcus aureus [1]
  MIC: 3.13 µM (≈ 1.3 µg/mL)
Staphylococcus aureus [2]
  MIC: 3.13 µM (≈ 1.3 µg/mL)
Escherichia coli
  MIC: > 50 µM
Staphylococcus aureus [17]
  MIC: 0.47 µM
Staphylococcus aureus [18]
  MIC: 6.25 µM
Staphylococcus aureus [19]
  fold change (FC): 6.65
Staphylococcus aureus [20]
  Activity: Active
Staphylococcus aureus [21]
  Activity: Active
Staphylococcus aureus [22]
  Activity: Active
Staphylococcus aureus [23]
  Activity: inactive
Staphylococcus aureus [24]
  Activity: inactive
Staphylococcus aureus [25]
  Activity: inactive
Staphylococcus aureus [26]
  Activity: inactive
Staphylococcus aureus [27]
  Activity: inactive
Staphylococcus aureus [28]
  Activity: Active
Staphylococcus aureus [29]
  Activity: Active
Staphylococcus aureus [30]
  Activity: Active
Cell membrane
  Activity: inactive
Staphylococcus aureus [31]
  Activity: inactive
Staphylococcus aureus [32]
  Activity: inactive
Staphylococcus aureus [33]
  fold change (FC): 16
Staphylococcus aureus [34]
  Activity: Active
Erythrocyte
  Activity: Non-Toxic
MCF-10A
  Activity: Non-Toxic
MCF7
  Activity: Non-Toxic
MDA-MB-231
  Activity: Non-Toxic
A549
  Activity: Non-Toxic
HCT-116
  Activity: Non-Toxic

## CC(C)C[C@@H]1NC(=O)[C@H](CCCN)NC(=O)[C@H](C(C)C)NC(=O)[C@@H]2CCCN2C(=O)[C@@H](Cc2ccccc2)NC(=O)[C@H](CC(C)C)NC(=O)[C@H](CCCN)NC(=O)[C@H](C(C)C)NC(=O)C2CCCN2C(=O)[C@@H](Cc2ccccc2)NC1=O (some centres undefined) (cyclo(L[dF]PV[Orn]L[dF][ξP]V[Orn]))
Staphylococcus aureus [1]
  MIC: 3.12 µM (≈ 3.56 µg/mL)
Staphylococcus aureus [2]
  MIC: 6.5 µM (≈ 7.42 µg/mL)
Escherichia coli
  MIC: 4.51 µM (≈ 5.15 µg/mL)

## FC(F)(F)c1cc(NC(=S)Nc2cccc3ccc(Nc4nc5ccccc5[nH]4)nc23)cc(C(F)(F)F)c1
Staphylococcus aureus [1]
  MIC: > 50 µM
Staphylococcus aureus [2]
  MIC: > 50 µM
Escherichia coli
  MIC: > 50 µM

## O=[N+]([O-])c1ccc(NC(=S)Nc2cccc3cccnc23)cc1
Staphylococcus aureus [1]
  MIC: > 25 µM
Staphylococcus aureus [2]
  MIC: > 50 µM
Escherichia coli
  MIC: > 50 µM
